From patent US20090062251A1, “Novel Compounds 002” (ASTRAZENECA AB, priority 2007, published 2009) come the findings set out here.

Where only a bound is given, the exact number is not on record here.

The target of assay [1] is T1, Human CB1 receptor (hCB1) (Homo sapiens, UniProt P21554).
T1 construct: purchased Receptor Biology
The assay can be described thus: hCB1 GTPγS binding. The class given is biochemical. As to conditions: for EC50: hCB1 membranes, GTPγ35S, 10-point dose-response; for Emax: maximal stimulated binding determined with 10 μM Win 55,212-2. The procedure: hCB1 and hCB2 GTPγS Binding
Human CB1 receptor from Receptor Biology (hCB1) or human CB2 receptor membranes (BioSignal) are thawed at 37° C., passed 3 times through a 25-gauge blunt-end needle and diluted in the GTPγS binding buffer (50 mM Hepes, 20 mM NaOH, 100 mM NaCl, 1 mM EDTA, 5 mM MgCl2, pH 7.4, 0.1% BSA). […] The basal and maximal stimulated binding is determined in absence and presence of 1 μM (hCB2) or 10 μM (hCB1) Win 55, 212-2 respectively. The membranes are pre-incubated for 5 minutes with 56.25 μM (hCB2) or 112.5 μM (hCB1) GDP prior to distribution in plates (15 μM (hCB2) or 30 μM (hCB1) GDP final). The plates are vortexed and incubated for 60 minutes at room temperature, filtered on Unifilters GF/B (presoaked in water) with the Tomtec or Packard harvester using 3 ml of wash buffer (50 mM Tris, 5 mM MgCl2, 50 mM NaCl, pH 7.0). The filters are dried for 1 hour at 55° C. The radioactivity (cpm) is counted in a TopCount (Packard) after adding 65 μl/well of MS-20 scintillation liquid. Antagonist reversal studies are done in the same way except that (a) an agonist dose-response curve is done in the presence of a constant concentration of antagonist, or (b) an antagonist dose-response curve is done in the presence of a constant concentration of agonist.
(GTPγS is a poorly hydrolysed GTP analogue; its binding reports G protein activation.)

For assay [2], the target named is T1, Human CB1 receptor (hCB1). Kind of assay: hCB1 receptor binding (3H-CP55,940 displacement). As to conditions: hCB1 membranes, Ki=IC50/(1+[rad]/Kd). The procedure: hCB1 and hCB2 Receptor Binding
Human CB1 receptor from Receptor Biology (hCB1) or human CB2 receptor from BioSignal (hCB2) membranes are thawed at 37° C., passed 3 times through a 25-gauge blunt-end needle, diluted in the cannabinoid binding buffer (50 mM Tris, 2.5 mM EDTA, 5 mM MgCl2, and 0.5 mg/mL BSA fatty acid free, pH 7.4) and aliquots containing the appropriate amount of protein are distributed in 96-well plates. […] The total and non-specific binding are determined in the absence and presence of 0.2 μM of HU210 respectively. The plates are vortexed and incubated for 60 minutes at room temperature, filtered through Unifilters GF/B (presoaked in 0.1% polyethyleneimine) with the Tomtec or Packard harvester using 3 mL of wash buffer (50 mM Tris, 5 mM MgCl2, 0.5 mg BSA pH 7.0). The filters are dried for 1 hour at 55° C. The radioactivity (cpm) is counted in a TopCount (Packard) after adding 65 μl/well of MS-20 scintillation liquid.
Based on the above assays, the dissociation constant (Ki) for a particular compound of the invention towards a particular receptor is determined using the following equation:
[rad] is a standard or reference radioactive ligand concentration at that moment; and
Kd is the dissociation constant of the radioactive ligand towards the particular receptor.

T1 sequence (P21554 whole entry): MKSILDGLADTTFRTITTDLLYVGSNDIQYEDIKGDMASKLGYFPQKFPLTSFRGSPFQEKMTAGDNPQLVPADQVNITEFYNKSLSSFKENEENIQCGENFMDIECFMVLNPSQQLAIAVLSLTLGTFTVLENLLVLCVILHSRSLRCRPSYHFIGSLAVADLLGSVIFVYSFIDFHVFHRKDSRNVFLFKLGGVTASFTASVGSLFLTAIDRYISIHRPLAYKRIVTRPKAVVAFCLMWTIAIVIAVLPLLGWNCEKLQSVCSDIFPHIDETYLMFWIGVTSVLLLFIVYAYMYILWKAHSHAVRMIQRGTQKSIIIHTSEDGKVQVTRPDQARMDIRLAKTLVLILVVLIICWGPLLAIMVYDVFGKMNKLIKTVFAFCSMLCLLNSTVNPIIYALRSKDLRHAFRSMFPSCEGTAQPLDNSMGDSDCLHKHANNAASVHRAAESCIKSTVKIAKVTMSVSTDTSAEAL

For orientation: EC50 means the midpoint of the concentration-response curve. High values mean a need for much substance, low ones an effect from little substance. As usually defined, the Emax is the maximal effect, on the per cent scale that the assay sets. In general, Ki refers to the dissociation constant of the complex between target and ligand, obtained from inhibition or displacement. In assay [1], `CC(C)C(=O)NC1CCCN(C(=O)c2ccc3c(c2)c2c(n3C)CCC(C3CCOCC3)C2)C1` (centres unmarked) [2-methyl-N-[1-[9-methyl-6-(oxan-4-yl)5,6,7,8-tetrahydrocarbazole-3-carbonyl]-3-piperidyl]propanamide] yielded an EC50 of 401 nM and an Emax of 118%. Moreover, the affinity in assay [2], expressed as Ki, was 157 nM.
In assay [1], `CN(CC(=O)NC1CC1)C(=O)c1ccc2c(c1)c1c(n2S(C)(=O)=O)CCC(C2CCCCC2)C1` (centres unmarked) [6-cyclohexyl-N-(cyclopropylcarbamoylmethyl)-N-methyl-9-methylsulfonyl-5,6,7,8-tetrahydrocarbazole-3-carboxamide] returned an EC50 of 31.3 nM and a maximal response (Emax) of 111%. This molecule showed a Ki in assay [2] of 7.9 nM.
For the molecule `CC(C)S(=O)(=O)n1c2c(c3cc(C(=O)N(C)CC(=O)NC4CC4)ccc31)CC(C1CCCCC1)CC2` (centres unmarked) [6-cyclohexyl-N-(cyclopropylcarbamoylmethyl)-N-methyl-9-propan-2-ylsulfonyl-5,6,7,8-tetrahydrocarbazole-3-carboxamide], in assay [1], it took 43.9 nM to reach a half-maximal effect (EC50) and the Emax is 110%. For the same molecule, the affinity in assay [2], expressed as Ki, was 21.2 nM.
In assay [1], `CCNC(=O)CN(CC)C(=O)c1ccc2c(c1)c1c(n2CC2CC2)CCC(C2CCOCC2)C1` (centres unmarked) [9-(cyclopropylmethyl)-N-ethyl-N-(ethylcarbamoylmethyl)-6-(oxan-4-yl)-5,6,7,8-tetrahydrocarbazole-3-carboxamide] displayed a concentration for a half-maximal effect (EC50) of 157 nM and an Emax of 90%. This molecule also had a Ki in assay [2] of 65.2 nM.
In assay [1], `CCN(CC(=O)NC(C)C)C(=O)c1ccc2c(c1)c1c(n2C2CCC2)CCC(C2CCOCC2)C1` (centres unmarked) [9-cyclobutyl-N-ethyl-6-(oxan-4-yl)-N-(propan-2-ylcarbamoylmethyl)-5,6,7,8-tetrahydrocarbazole-3-carboxamide] showed an EC50 of 293 nM and a maximal effect (Emax) of 70%. Affinity in assay [2] was put at a Ki of 152 nM.
The corresponding values for `CCN(CC(=O)NCCF)C(=O)c1ccc2c(c1)c1c(n2C2CCC2)CCC(C2CCOCC2)C1` (centres unmarked) [9-cyclobutyl-N-ethyl-N-(2-fluoroethylcarbamoylmethyl)-6-(oxan-4-yl)-5,6,7,8-tetrahydrocarbazole-3-carboxamide] are 279 nM, 80% and 131 nM.
The matching figures for `CCNC(=O)CN(CC)C(=O)c1ccc2c(c1)c1c(n2C2CCC2)CCC(C2CCOCC2)C1` (centres unmarked) [9-cyclobutyl-N-ethyl-N-(ethylcarbamoylmethyl)-6-(oxan-4-yl)-5,6,7,8-tetrahydrocarbazole-3-carboxamide]: 233 nM, 82% and 113 nM.
Take `CCn1c2c(c3cc(C(=O)N(C)CCCC(=O)NCCF)ccc31)CC(C1CCOCC1)CC2` (centres unmarked) [9-ethyl-N-[3-(2-fluoroethylcarbamoyl)propyl]-N-methyl-6-(oxan-4-yl)-5,6,7,8-tetrahydrocarbazole-3-carboxamide]: in assay [1], the EC50 came out at 60.3 nM and the Emax is 119%. Affinity in assay [2] was put at a Ki of 25.8 nM.
In assay [1], `CCn1c2c(c3cc(C(=O)N(C)CCCC(=O)NCCO)ccc31)CC(C1CCOCC1)CC2` (centres unmarked) [9-ethyl-N-[3-(2-hydroxyethylcarbamoyl)propyl]-N-methyl-6-(oxan-4-yl)-5,6,7,8-tetrahydrocarbazole-3-carboxamide] displayed an EC50 of 597 nM and an Emax of 119%. Besides, the affinity in assay [2] corresponds to a Ki of 236 nM.
The matching figures for `CCn1c2c(c3cc(C(=O)N(C)CCCC(=O)NCC(F)(F)F)ccc31)CC(C1CCOCC1)CC2` (centres unmarked) [9-ethyl-N-methyl-6-(oxan-4-yl)-N-[3-(2,2,2-trifluoroethylcarbamoyl)propyl]-5,6,7,8-tetrahydrocarbazole-3-carboxamide]: 228 nM, 98% and 110 nM.
The corresponding values for `CCn1c2c(c3cc(C(=O)N(C)CCCC(=O)NC)ccc31)CC(C1CCOCC1)CC2` (centres unmarked) [9-ethyl-N-methyl-N-[3-(methylcarbamoyl)propyl]-6-(oxan-4-yl)-5,6,7,8-tetrahydrocarbazole-3-carboxamide] are 146 nM, 121% and 59.2 nM.
In assay [1], `Cn1c2c(c3cc(C(=O)N4CC[C@H](C(=O)NCC(F)F)C4)ccc31)CC(C1CCOCC1)CC2` (stereo partly drawn) [(3S)—N-(2,2-difluoroethyl)-1-[9-methyl-6-(oxan-4-yl)5,6,7,8-tetrahydrocarbazole-3-carbonyl]pyrrolidine-3-carboxamide] came in with an EC50 of 82.6 nM and an Emax of 125%. In assay [2], this molecule returned a Ki of 49.5 nM.
The molecule `CNCCN(C)C(=O)c1ccc2c(c1)c1c(n2C)CCC(C2CCOCC2)C1` (centres unmarked) [N,9-dimethyl-N-(2-methylaminoethyl)-6-(oxan-4-yl)-5,6,7,8-tetrahydrocarbazole-3-carboxamide] showed a Ki in assay [2] above 8720 nM.
On the same count and under the same terms, the value for `Cn1c2c(c3cc(C(=O)NCCF)ccc31)CC(C1CCOCC1)CC2` (centres unmarked) [N-(2-fluoroethyl)-9-methyl-6-(oxan-4-yl)-5,6,7,8-tetrahydrocarbazole-3-carboxamide] was 659 nM.
The same measure, in the same setting: the figure for `CCN(CC(=O)NCC#N)C(=O)c1ccc2c(c1)c1c(n2C)CCC(C2CCOCC2)C1` (centres unmarked) [N-(cyanomethylcarbamoylmethyl)-N-ethyl-9-methyl-6-(oxan-4-yl)-5,6,7,8-tetrahydrocarbazole-3-carboxamide] is 333 nM; for `CN(C(=O)c1ccc2c(c1)c1c(n2C)CCC(C2CCOCC2)C1)C1(C(=O)NC2CC2)CC1` (centres unmarked) [N-[1-(cyclopropylcarbamoyl)cyclopropyl]-N,9-dimethyl-6-(oxan-4-yl)-5,6,7,8-tetrahydrocarbazole-3-carboxamide] it is 371 nM; for `CN(CCC(=O)NC1CC1)C(=O)c1ccc2c(c1)c1c(n2C)CCC(C2CCOCC2)C1` (centres unmarked) [N-[2-(cyclopropylcarbamoyl)ethyl]-N,9-dimethyl-6-(oxan-4-yl)-5,6,7,8-tetrahydrocarbazole-3-carboxamide] it is 655 nM.
The same measure, in the same setting: the figure for `Cn1c2c(c3cc(C(=O)NCCCC(=O)NC4CC4)ccc31)CC(C1CCOCC1)CC2` (centres unmarked) [N-[3-(cyclopropylcarbamoyl)propyl]-9-methyl-6-(oxan-4-yl)-5,6,7,8-tetrahydrocarbazole-3-carboxamide] is 1440 nM.
For `CCN(CC(=O)NC1(C#N)CC1)C(=O)c1ccc2c(c1)c1c(n2C)CCC(C2CCOCC2)C1` (centres unmarked) [N-[(1-cyanocyclopropyl)carbamoylmethyl]-N-ethyl-9-methyl-6-(oxan-4-yl)-5,6,7,8-tetrahydrocarbazole-3-carboxamide], in assay [2], the Ki was above 1170 nM.
As for `C[C@@H](C(=O)NCCF)N(C)C(=O)c1ccc2c(c1)c1c(n2C)CCC(C2CCOCC2)C1` (stereo partly drawn) [N-[(1S)-1-(2-fluoroethylcarbamoyl)ethyl]-N,9-dimethyl-6-(oxan-4-yl)-5,6,7,8-tetrahydrocarbazole-3-carboxamide], the Ki in assay [2] is above 1400 nM.
On the same count and under the same terms, the figure for `C[C@@H](C(=O)NC1CC1)N(C)C(=O)c1ccc2c(c1)c1c(n2C)CCC(C2CCOCC2)C1` (stereo partly drawn) [N-[(1S)-1-(cyclopropylcarbamoyl)ethyl]-N,9-dimethyl-6-(oxan-4-yl)-5,6,7,8-tetrahydrocarbazole-3-carboxamide] is above 3530 nM; for `Cn1c2c(c3cc(C(=O)N4CC(CC(=O)NC5CC5)C4)ccc31)CC(C1CCOCC1)CC2` (centres unmarked) [N-cyclopropyl-2-[1-[9-methyl-6-(oxan-4-yl)5,6,7,8-tetrahydrocarbazole-3-carbonyl]azetidin-3-yl]acetamide] it is 2080 nM.
In the case of `CCS(=O)(=O)n1c2c(c3cc(C(=O)N4CC[C@@H](O)C4)ccc31)CC(C1CCOCC1)CC2` (stereo partly drawn) [[9-ethylsulfonyl-6-(oxan-4-yl)-5,6,7,8-tetrahydrocarbazol-3-yl]-[(3R)-3-hydroxypyrrolidin-1-yl]methanone], in assay [1], the EC50 was above 3160 nM and the Emax was above 89%.
The matching figures for `CCS(=O)(=O)n1c2c(c3cc(C(=O)N4CC[C@H](O)C4)ccc31)CC(C1CCOCC1)CC2` (stereo partly drawn) [[9-ethylsulfonyl-6-(oxan-4-yl)-5,6,7,8-tetrahydrocarbazol-3-yl]-[(3S)-3-hydroxypyrrolidin-1-yl]methanone]: 4560 nM and 105%.
